Measured values published in patent publication US5753648A, “Tricyclic benzazepine vasopressin antagonists” (American Cyanamid Company, priority 1996, dated 1998).
Structures can show the parent of a compound that is named as a salt.

What was measured:
[1] = molecular target: T1, Rat Kidney Medullary V2 Receptors (Rattus norvegicus, UniProt Q00788); assay: biochemical; type: binding
T1 construct: Medullary tissues from rat kidneys are dissected out; from tissue; host or cells: rat kidney medulla membranes
T1 sequence (Q00788 whole entry): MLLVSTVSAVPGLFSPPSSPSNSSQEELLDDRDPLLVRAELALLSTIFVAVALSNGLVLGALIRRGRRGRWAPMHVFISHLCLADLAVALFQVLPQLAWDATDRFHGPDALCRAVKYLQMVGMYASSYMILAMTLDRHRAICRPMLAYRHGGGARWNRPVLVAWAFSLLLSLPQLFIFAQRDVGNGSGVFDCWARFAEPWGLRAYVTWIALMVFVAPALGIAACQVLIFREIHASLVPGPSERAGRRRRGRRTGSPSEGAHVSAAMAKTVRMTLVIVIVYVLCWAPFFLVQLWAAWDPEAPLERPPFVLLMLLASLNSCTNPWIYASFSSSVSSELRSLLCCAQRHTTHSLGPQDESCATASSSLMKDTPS
Procedure: Binding Assay to Rat Kidney Medullary V2 Receptors
Medullary tissues from rat kidneys are dissected out, cut into small pieces and soaked in a […] sodium chloride solution containing 1.0 mM EDTA with many changes of the liquid phase, until the solution is clear of blood. The tissue is homogenized in a 0.25M sucrose solution containing 1.0 mM EDTA and 0.1 mM PMSF using a Potter-Elvehjem homogenizer with a teflon pestle. The homogenate is filtered through several layers (4 layers) of cheese cloth. The filtrate is rehomogenized using a dounce homogenizer, with a tight fitting pestle. The final homogenate is centrifuged at 1500×g for 15 min. The nuclear pellet is discarded and the supernatant fluid recentrifuged at 40,000×g for 30 min. The resulting pellet formed contains a dark inner part with the exterior, slightly pink. The pink outer part is suspended in a small amount of 50.0 mM Tris.HCl buffer, pH 7.4. The protein content is determined by the Lowry's method (Lowry et al, J. Biol. Chem., 1953). The membrane suspension is stored at -70° C., in 50.0 mM Tris.HCl, containing 0.2% inactivated BSA and 0.1 mM PMSF in aliquots of 1.0 ml containing 10.0 mg protein per ml of suspension until use in subsequent binding experiments.
For binding experiments, the following is added in μl volume to wells of a 96 well format of a microtiter plate: 100.0 μl of 100.0 mM Tris.HCl buffer containing 0.2% heat inactivated BSA, 10.0 mM MgCl2 and a mixture of protease inhibitors: leupeptin, 1.0 mg %; aprotinin, 1.0 mg %; 1,10-phenanthroline, 2.0 mg %; trypsin inhibitor, 10.0 mg % and 0.1 mM PMSF, 20.0 μl of [^3 H] Arginine^8, vasopressin (S.A. 75.0 Ci/mmole) at 0.8 nM and the reaction initiated by the addition of 80.0 μl of tissue membranes (200.0 μg tissue protein). The plates are left undisturbed on the bench top for 120 min. to reach equilibrium. Non-specific binding is assessed in the presence of 1.0 μM of unlabeled ligand, added in 20 μl volume. For test compounds, these are solubilized in 50% dimethylsulfoxide (DMSO) and added in 20.0 μl volume to a final incubation volume of 200 μl. Upon completion of binding, the content of each well is filtered off, using a Brandel® cell Harvester (Gaithersburg, Md.). The radioactivity trapped on the filter disk by the ligand-receptor complex is assessed by liquid scintillation counting in a Packard LS Counter, with an efficiency of 65% for tritium. The data are analyzed for IC50 values by the LUNDON-2 program for competition (LUNDON SOFTWARE, Ohio).

oxytocin receptors = molecular target: T2, oxytocin receptors (Rattus norvegicus, UniProt P70536); assay: Oxytocin Receptor Binding; details: for IC50: rat uterine membranes, [3H]oxytocin
T2 sequence (P70536 1-388): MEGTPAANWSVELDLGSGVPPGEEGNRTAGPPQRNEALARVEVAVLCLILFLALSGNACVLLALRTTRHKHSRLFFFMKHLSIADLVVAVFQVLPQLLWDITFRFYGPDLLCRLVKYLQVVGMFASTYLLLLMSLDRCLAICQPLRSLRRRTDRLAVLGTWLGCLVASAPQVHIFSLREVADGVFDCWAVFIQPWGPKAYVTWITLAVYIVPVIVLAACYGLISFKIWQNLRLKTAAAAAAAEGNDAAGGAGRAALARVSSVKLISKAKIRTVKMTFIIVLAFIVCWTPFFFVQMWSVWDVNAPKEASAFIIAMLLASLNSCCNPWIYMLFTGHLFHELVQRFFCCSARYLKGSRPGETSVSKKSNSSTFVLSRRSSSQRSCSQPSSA

Row | SMILES | inhibition at 10 µM [1] [%] | inhibition at 10 µM (oxytocin receptors; dose 10 μM) [%] | inhibition at 1 µM [1] [%] | IC50 (oxytocin receptors) [nM] | also measured
1 | O=C(Nc1ccc(C(=O)N2Cc3cccn3Cc3ccccc32)cn1)c1ccc(F)cc1F [Example 7] | 58 | 66 | – | – | –
2 | O=C(Nc1ccc(C(=O)N2Cc3cccn3Cc3ccccc32)cn1)c1ccccc1-c1ccccc1 [Example 10] | – | – | 95 | – | –
3 | O=C(Nc1ccc(C(=O)N2Cc3cccn3Cc3ccccc32)cn1)c1ccccc1[N+](=O)[O-] [Example 43] | – | 99 | – | 920 | –
4 | Cc1ccc(F)cc1C(=O)Nc1ccc(C(=O)N2Cc3ccc(CN(C)C)n3Cc3ccccc32)cn1 [Example 120, N-[5-[[3-[(Dimethylamino)methyl]-[5H-pyrrolo[2,1-c][1,4]benzodiazepin-10(11H)]-yl]carbonyl]-2-pyridinyl]-5-fluoro-2-methylbenzamide] | – | – | – | – | inhibition at 1 µM (oxytocin receptors; dose 1 μM): 8%
5 | Cc1ccc(F)cc1C(=O)N(CCN(C)C)c1ccc(C(=O)N2Cc3cccn3Cc3ccccc32)cn1 [Example 130, N-[2-(Dimethylamino)ethyl]-N-[5-(5H-pyrrolo[2,1-c][1,4]benzodiazepin-10(11H)-ylcarbonyl)-2-pyridinyl]-5-fluoro-2-methylbenzamide] | 92 | 57 | – | – | –
6 | Cc1ccc(F)cc1C(=O)N(CCCN(C)C)c1ccc(C(=O)N2Cc3cccn3Cc3ccccc32)cn1 [Example 131, N-[3-(Dimethylamino)propyl]-N-[5-(5H-pyrrolo[2,1-c][1,4]benzodiazepin-10(11H)-ylcarbonyl)-2-pyridinyl]-5-fluoro-2-methylbenzamide] | – | 60 | 82 | – | –
7 | Cc1ccc(F)cc1C(=O)Nc1ccc(C(=O)N2Cc3cccn3-c3ccccc32)cn1 [Example 171, N-[5-(Pyrrolo[1,2-a]quinoxalin-5(4H)-ylcarbonyl)-2-pyridinyl]-5-fluoro-2-methylbenzamide] | – | 73 | – | 1100 | –
8 | CC(C)CNc1ccc(C(=O)N2Cc3cccn3Cc3ccccc32)cn1 [Example 261, 10-[[6-[(2-Methylpropyl)amino]-3-pyridinyl]carbonyl]-10,11-dihydro-5H-pyrrolo[2,1-c][1,4]benzodiazepine] | 55 | – | 32 | 150 | –
9 | CC(C)(C)CCNc1ccc(C(=O)N2Cc3cccn3Cc3ccccc32)cn1 [Example 262] | – | 76 | 50 | 1600 | –
10 | Cc1ccccc1CNc1ccc(C(=O)N2Cc3cccn3Cc3ccccc32)cn1 [Example 274] | 97 | – | – | – | –
11 | Cc1ccccc1Nc1ccc(C(=O)N2Cc3cccn3Cc3ccccc32)cn1 [Example 301, 10,11-Dihydro-10-[[6-[(2-methylphenyl)amino]-3-pyridinyl]carbonyl]-5H-Pyrrolo[2,1-c][1,4]benzodiazepine] | 91 | 89 | – | 860 | –
12 | CNc1ncccc1C(=O)Nc1ccc(C(=O)N2Cc3cccn3Cc3ccccc32)cc1 [Example 334, N-[4-(5H-Pyrrolo[2,1-c][1,4]benzodiazepin-10(11H)-ylcarbonyl)phenyl]-2-(methylamino)pyridine-3-carboxamide] | – | – | 79 | – | inhibition at 1 µM (oxytocin receptors; dose 1 μM): 5%
13 | O=C(Nc1ccc(C(=O)N2Cc3cccn3Cc3ccccc32)cc1)c1cccnc1N1CCCCC1 [Example 336, N-[4-(5H-Pyrrolo[2,1-c][1,4]benzodiazepin-10(11H)-ylcarbonyl)phenyl]-2-(1-piperidinyl)-pyridine-3-carboxamide] | – | 94 | 69 | 1630 | –
14 | O=C(Nc1ccc(C(=O)N2Cc3cccn3Cc3ccccc32)cc1)c1cccnc1N1CCOCC1 [Example 339, N-[4-(5H-Pyrrolo[2,1-c][1,4]benzodiazepin-10(11H)-ylcarbonyl)phenyl]-2-(morpholino)-pyridine-3-carboxamide] | – | 48 | 55 | 8560 | –
15 | O=C(Nc1ccc(C(=O)N2Cc3cccn3Cc3ccccc32)cc1)c1cccnc1Oc1ccc(Cl)cc1 [Example 346, N-[4-(5H-Pyrrolo[2,1-c][1,4]benzodiazepin-10(11H)-ylcarbonyl)phenyl]-2-(4-chlorophenyloxy)pyridine-3-carboxamide] | 76 | – | – | – | inhibition at 1 µM (oxytocin receptors; dose 1 μM): 0%
16 | Cc1occc1C(=O)Nc1ccc(C(=O)N2Cc3cccn3Cc3ccccc32)cn1 [Example 353, N-[5-(5H-Pyrrolo[2,1-c][1,4]benzodiazepine-10(11H)-ylcarbonyl)-2-pyridinyl]-2-methylfurane-3-carboxamide] | – | 83 | 86 | 2050 | –

More lines, main results first:

Row | inhibition at 10 µM [1] [%] | inhibition at 10 µM (oxytocin receptors; dose 10 μM) [%] | inhibition at 1 µM [1] [%] | IC50 (oxytocin receptors) [nM] | SMILES | also measured
17 | – | – | 93 | – | O=C(Nc1ccc(C(=O)N2Cc3cccn3Cc3ccccc32)cn1)c1cc(Br)ccc1Cl [Example 11] | –
18 | – | 96 | 99 | 580 | O=C(Nc1ccc(C(=O)N2Cc3cccn3Cc3ccccc32)cn1)c1cc(Cl)ccc1Cl [Example 14] | –
19 | – | – | 94 | 310 | O=C(Nc1ccc(C(=O)N2Cc3cccn3Cc3ccccc32)cn1)c1c(F)cccc1Cl [Example 18] | inhibition at 5 µM (oxytocin receptors; dose 5 μM): 97%
20 | 94 | – | – | – | Cc1ccc(F)cc1C(=O)Nc1ccc(C(=O)N2Cc3cccn3-c3ncccc32)cn1 [Example 134, N-[5-(Pyrido[3,2-e]pyrrolo[1,2-a]pyrazin-5(6H)-ylcarbonyl)-2-pyridinyl]-5-fluoro-2-methylbenzamide] | inhibition at 1 µM (oxytocin receptors; dose 1 μM): 63%
21 | 54 | 94 | – | 1360 | O=C(c1ccc(SC2CCCCC2)nc1)N1Cc2cccn2Cc2ccccc21 [Example 288, 10,11-Dihydro-10-[[6-(cyclohexylthio)-3-pyridinyl]carbonyl]-5H-pyrrolo-[2,1-c][1,4]benzodiazepine] | –
22 | 91 | – | – | – | O=C(Nc1ccc(C(=O)N2Cc3cccn3Cc3ccccc32)c(Cl)c1)c1ccccc1-c1ccc(C(F)(F)F)cc1 [Example 326] | inhibition at 1 µM (oxytocin receptors; dose 1 μM): 0%
23 | – | – | 79 | – | Cc1ncccc1C(=O)Nc1ccc(C(=O)N2Cc3cccn3Cc3ccccc32)cn1 [Example 330, N-[5-(5H-Pyrrolo[2,1-c][1,4]benzodiazepin-10(11H)-ylcarbonyl]-2-pyridinyl]-2-methylpyridine-3-carboxamide Hydrochloride] | Oxytocin Binding Assay % Inhibition (oxytocin receptors; dose 10 μM, Hydrochloride): 93%; IC50 (oxytocin receptors; Hydrochloride): 990 nM
24 | – | – | 43 | – | CN1CCN(c2ncccc2C(=O)Nc2ccc(C(=O)N3Cc4cccn4Cc4ccccc43)cc2)CC1 [Example 331, N-[4-(5H-Pyrrolo[2,1-c][1,4]benzodiazepin-10(11H)-ylcarbonyl)phenyl]-2-[N-methylpiperazinyl]-pyridine-3-carboxamide Hydrochloride] | Oxytocin Binding Assay % Inhibition (oxytocin receptors; dose 1 μM, Hydrochloride): 13%
25 | – | – | – | 3800 | CCCCOc1ccc(C(=O)N2Cc3cc(CO)nn3Cc3ccccc32)cc1 [Example 344, 5,10-Dihydro-2-hydroxymethyl-5-(4-(4-butyloxy)benzoyl)-4H-pyrazolo[5,1-c][1,4]benzodiazepine] | inhibition at 1 µM (oxytocin receptors; dose 1 μM): 58%
26 | – | – | 56 | – | COc1ccc(CNc2ccc(C(=O)N3Cc4cccn4Cc4ccccc43)cn2)c(OC)c1 [Example 351] | inhibition at 1 µM (oxytocin receptors; dose 1 μM): 0%
27 | – | – | 86 | – | Nc1ccccc1C(=O)Nc1ccc(C(=O)N2Cc3cccn3Cc3ccccc32)cn1 [Example 354, N-[5-(5H-Pyrrolo[2,1-c][1,4]benzodiazepin-10(11H)-ylcarbonyl)-2-pyridinyl]-2-aminobenzamide] | inhibition at 1 µM (oxytocin receptors; dose 1 μM): 7%
